The target of the first experiment is human DGAT2 (hDGAT2) (Homo sapiens (Human), UniProt Q96PD7). Description: DGAT2 Enzymatic Activity Assay. Particulars: hDGAT2 Sf-9 membrane prep; 13C18-triolein product by LC/MS/MS; 25 μM diolein, 5 μM 13C oleoyl-CoA. It counts as biochemical. On the procedure:
Sf-9 insect cells were maintained in Grace's insect cell culture medium with 10% heated-inactivated fetal bovine serum, 1% Pluronic F-68 and 0.14 μg/ml Kanamycine sulfate at 27° C. in a shaker incubator. After infection with untagged baculovirus expressing human DGAT2 (hDGAT2) at multiplicity of infection (MOI) 3 for 48 hours, cells were harvested. Cell pellets were suspended in buffer containing 10 mM Tris-HCl pH 7.5, 1 mM EDTA, 250 mM sucrose and Complete Protease Inhibitor Cocktail (Sigma Aldrich), and sonicated on ice. Cell debris were removed by centrifugation at 2000×g for 15 minutes. Membrane fractions were isolated by ultracentrifugation (100,000×g), resuspended in the same buffer, and frozen (−80° C.) for later use. The protein concentration was determined with the Pierce™ BCA Protein Assay Kit (Thermo Fisher Scientific).
LC/MS/MS analyses were performed using Thermal Fisher's LX4-TSQ Vantage system. This system consists of an Agilent binary high-performance liquid chromatography (HPLC) pump and a TSQ Vantage triple quadrupole MS/MS instrument. For each sample, 2 μL samples from the top organic layer of in-plate liquid-liquid extraction were injected onto a Thermo Betabasic C4 column (2.1 mm×20 mm, 5 μm particle size). The samples were then eluted using the following conditions; mobile phase: Isopropanol: acetonitrile/10 mM ammonium formate=50/35/15 (v/v/v), flow rate: 0.8 mL/min, temperature: 25° C. Data was acquired in positive mode using a heated electrospray ionization (HESI) interface. […] The peak area was integrated by Xcalibur Quan software. The ratio between the ^13C18triolein generated in the reaction and spiked in internal standard ^13C21-triolein was used to generate percentage inhibition and IC50 values. Compound percentage inhibition was calculated by the following formula: Inhibition %=1−[(compound response−low control)/(high control−low control)]×100%.
DGAT2 activity was determined by measuring the amount of enzymatic product ^13C18-triolein (^13C-1,2,3-Tri(cis-9-octadecenoyl)glycerol) using the membrane prep mentioned above. The assay was carried out in ABgene 384-well assay plates in a final volume of 25 μL at rt.
human DGAT2 (hDGAT2), sequence (Q96PD7 whole entry): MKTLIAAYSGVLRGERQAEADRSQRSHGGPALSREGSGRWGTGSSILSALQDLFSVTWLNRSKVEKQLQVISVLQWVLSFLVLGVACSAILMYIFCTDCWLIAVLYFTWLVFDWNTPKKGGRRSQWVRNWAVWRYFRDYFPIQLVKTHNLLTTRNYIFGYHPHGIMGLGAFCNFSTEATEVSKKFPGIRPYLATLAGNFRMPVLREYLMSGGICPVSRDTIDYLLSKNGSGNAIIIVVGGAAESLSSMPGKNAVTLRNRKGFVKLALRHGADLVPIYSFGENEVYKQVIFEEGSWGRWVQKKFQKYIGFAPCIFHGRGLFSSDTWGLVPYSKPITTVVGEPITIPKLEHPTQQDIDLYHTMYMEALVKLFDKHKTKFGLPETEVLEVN
For `C[C@]1(NC(=O)[C@@H]2Cc3c(c(-c4cccc(OC(F)F)c4)nn3C3CCOCC3)C(F)(F)C2)CCS(=O)(=O)C1` (single isomer, unassigned) [Example 117a], the 50% inhibitory concentration (IC50) was more than 10 µM. Still for that read-out and setting: the figure for `C[C@]1(NC(=O)[C@H]2Cc3c(c(-c4cccc(OC(F)F)c4)nn3C3CCOCC3)C(F)(F)C2)CCS(=O)(=O)C1` (single isomer, unassigned) [Example 117b] is 0.178 µM; for `C[C@]1(NC(=O)[C@@H]2CCc3c(-c4cccc(OC(F)F)c4)nn(-c4ccc(F)cn4)c3C2)CCS(=O)(=O)C1` [Example 3, (R)-3-(3-(difluoromethoxy)phenyl)-1-(5-fluoropyridin-2-yl)-N-((S)-3-methyl-1,1-dioxidotetrahydrothiophen-3-yl)-4,5,6,7-tetrahydro-1H-indazole-6-carboxamide] it is 0.0049 µM. The molecule `CC1(NC(=O)[C@@H]2CCc3c(-c4cccc(OC(F)F)c4)nn(-c4ccc(F)cn4)c3C2)CS(=O)(=O)C1` [Example 4, (R)-3-(3-(difluoromethoxy)phenyl)-1-(5-fluoropyridin-2-yl)-N-(3-methyl-1,1-dioxidothietan-3-yl)-4,5,6,7-tetrahydro-1H-indazole-6-carboxamide] yielded an IC50 of 0.0051 µM. As for `C[C@]1(NC(=O)C2CCc3c(-c4cncc(OC(F)F)c4)nn(-c4nnc(C5CC5)s4)c3C2)CCS(=O)(=O)C1` (stereo partly drawn) [Example 5, 1-(5-cyclopropyl-1,3,4-thiadiazol-2-yl)-3-(5-(difluoromethoxy)pyridin-3-yl)-N-((S)-3-methyl-1,1-dioxidotetrahydrothiophen-3-yl)-4,5,6,7-tetrahydro-1H-indazole-6-carboxamide], 0.542 µM corresponded to half-maximal inhibition (IC50). The same measure, in the same setting: the figure for `CC1(NC(=O)[C@@H]2CCc3c(-c4cccc(OC(F)F)c4)nn(-c4ccc(F)cn4)c3C2)CC(F)(F)C1` [Example 7, (R)-N-(3,3-difluoro-1-methylcyclobutyl)-3-(3-(difluoromethoxy)phenyl)-1-(5-fluoropyridin-2-yl)-4,5,6,7-tetrahydro-1H-indazole-6-carboxamide] is 0.012 µM. The molecule `CC1(NC(=O)[C@@H]2CCc3c(-c4cccc(OC(F)F)c4)nn(-c4ncc(F)cc4F)c3C2)CS(=O)(=O)C1` [Example 9, (R)-3-(3-(difluoromethoxy)phenyl)-1-(3,5-difluoropyridin-2-yl)-N-(3-methyl-1,1-dioxidothietan-3-yl)-4,5,6,7-tetrahydro-1H-indazole-6-carboxamide] gave an IC50 of 0.0102 µM. This IC50 and that of the molecule before are within 1.5-fold of each other. Same read-out and setting: the result for `C[C@]1(NC(=O)C2CCc3c(-c4cccc(OC(F)F)c4)nn(-c4ncc(Cl)cn4)c3C2)CCS(=O)(=O)C1` (stereo partly drawn) [Example 10, 1-(5-chloropyrimidin-2-yl)-3-(3-(difluoromethoxy)phenyl)-N-((S)-3-methyl-1,1-dioxidotetrahydrothiophen-3-yl)-4,5,6,7-tetrahydro-1H-indazole-6-carboxamide] reads 0.037 µM. On the same count and under the same terms, the result for `CC1(NC(=O)[C@@H]2CCc3c(-c4cncc(OC(F)F)c4)nn(-c4ccc(F)cn4)c3C2)CS(=O)(=O)C1` [Example 12, (R)-3-(5-(difluoromethoxy)pyridin-3-yl)-1-(5-fluoropyridin-2-yl)-N-(3-methyl-1,1-dioxidothietan-3-yl)-4,5,6,7-tetrahydro-1H-indazole-6-carboxamide] reads 0.0658 µM; that for `C[C@]1(NC(=O)[C@@H]2CCc3c(-c4cccc(C5CC(F)(F)C5)c4)nn(-c4ccc(F)cc4)c3C2)CCS(=O)(=O)C1` [Example 13, (R)-3-(3-(3,3-difluorocyclobutyl)phenyl)-1-(4-fluorophenyl)-N-((S)-3-methyl-1,1-dioxidotetrahydrothiophen-3-yl)-4,5,6,7-tetrahydro-1H-indazole-6-carboxamide], 0.02 µM. The molecule `C[C@]1(NC(=O)[C@@H]2CCc3c(-c4cncc(OC(F)F)c4)nn(-c4ccc(F)cn4)c3C2)CCS(=O)(=O)C1` [Example 14, (R)-3-(5-(difluoromethoxy)pyridin-3-yl)-1-(5-fluoropyridin-2-yl)-N-((S)-3-methyl-1,1-dioxidotetrahydrothiophen-3-yl)-4,5,6,7-tetrahydro-1H-indazole-6-carboxamide] had a half-inhibitory concentration (IC50) of 0.0139 µM.

`O=C(N[C@@H]1CCC[C@H]1N1CCOCC1)C1CCc2c(-c3cccc(OC(F)F)c3)nn(-c3ccc(F)cn3)c2C1` (stereo partly drawn) [Example 16, 3-(3-(difluoromethoxy)phenyl)-1-(5-fluoropyridin-2-yl)-N-((1R,2R)-2-morpholinocyclopentyl)-4,5,6,7-tetrahydro-1H-indazole-6-carboxamide] yielded an IC50 of 0.0669 µM. Still for that read-out and setting: the result for `C[C@]1(NC(=O)[C@@H]2CCc3c(-c4cccc(C5(F)CC5)c4)nn(-c4ccc(F)cc4)c3C2)CCS(=O)(=O)C1` [Example 17, (R)-3-(3-(1-fluorocyclopropyl)phenyl)-1-(4-fluorophenyl)-N-((S)-3-methyl-1,1-dioxidotetrahydrothiophen-3-yl)-4,5,6,7-tetrahydro-1H-indazole-6-carboxamide] reads 0.0707 µM; that for `CC(C)(N)c1cccc(-c2nn(-c3ccc(F)cc3)c3c2CC[C@@H](C(=O)N[C@@]2(C)CCS(=O)(=O)C2)C3)c1` [Example 18, (R)-3-(3-(2-aminopropan-2-yl)phenyl)-1-(4-fluorophenyl)-N-((S)-3-methyl-1,1-dioxidotetrahydrothiophen-3-yl)-4,5,6,7-tetrahydro-1H-indazole-6-carboxamide], more than 10 µM. Same read-out and setting: the result for `C[C@]1(NC(=O)[C@@H]2CCc3c(-c4cncc(OC(F)F)n4)nn(-c4ccc(F)cn4)c3C2)CCS(=O)(=O)C1` [Example 19, (R)-3-(6-(difluoromethoxy)pyrazin-2-yl)-1-(5-fluoropyridin-2-yl)-N-((S)-3-methyl-1,1-dioxidotetrahydrothiophen-3-yl)-4,5,6,7-tetrahydro-1H-indazole-6-carboxamide] reads more than 10 µM; that for `Cn1nccc1-c1nn(-c2ccc(F)cn2)c2c1CC[C@@H](C(=O)N[C@@]1(C)CCS(=O)(=O)C1)C2` [Example 20, (R)-1-(5-fluoropyridin-2-yl)-N-((S)-3-methyl-1,1-dioxidotetrahydrothiophen-3-yl)-3-(1-methyl-1H-pyrazol-5-yl)-4,5,6,7-tetrahydro-1H-indazole-6-carboxamide], 8.43 µM; that for `CC(C)n1nc(-c2cc(OC(F)F)ncc2F)c2c1C[C@H](C(=O)NC1(C)CCS(=O)(=O)CC1)CC2` [Example 21, (R)-3-(2-(difluoromethoxy)-5-fluoropyridin-4-yl)-1-isopropyl-N-(4-methyl-1,1-dioxidotetrahydro-2H-thiopyran-4-yl)-4,5,6,7-tetrahydro-1H-indazole-6-carboxamide], 0.0438 µM. On the same count and under the same terms, the figure for `CCOc1cc(-c2nn(C(C)C)c3c2CC[C@@H](C(=O)NC2(C)CCS(=O)(=O)CC2)C3)c(F)cn1` [Example 22, (R)-3-(2-ethoxy-5-fluoropyridin-4-yl)-1-isopropyl-N-(4-methyl-1,1-dioxidotetrahydro-2H-thiopyran-4-yl)-4,5,6,7-tetrahydro-1H-indazole-6-carboxamide] is 0.144 µM; for `CC1(NC(=O)[C@@H]2CCc3c(-c4cccc(OC(F)F)c4)nn(C4CCOCC4)c3C2)CS(=O)(=O)C1` [Example 23, (R)-3-(3-(difluoromethoxy)phenyl)-N-(3-methyl-1,1-dioxidothietan-3-yl)-1-(tetrahydro-2H-pyran-4-yl)-4,5,6,7-tetrahydro-1H-indazole-6-carboxamide] it is 0.169 µM; for `C[C@]1(NC(=O)[C@@H]2CCc3c(-c4cccc(OC(F)F)c4)nn(C4CCS(=O)(=O)CC4)c3C2)CCS(=O)(=O)C1` [Example 24, (R)-3-(3-(difluoromethoxy)phenyl)-1-(1,1-dioxidotetrahydro-2H-thiopyran-4-yl)-N-((S)-3-methyl-1,1-dioxidotetrahydrothiophen-3-yl)-4,5,6,7-tetrahydro-1H-indazole-6-carboxamide] it is 0.144 µM.

For `CC(C)n1nc(-c2cccc(OC(F)F)c2)c2c1C[C@H](C(=O)N[C@@]1(C)CCS(=O)(=O)C1)CC2` [Example 25, (R)-3-(3-(difluoromethoxy)phenyl)-1-isopropyl-N-((S)-3-methyl-1,1-dioxidotetrahydrothiophen-3-yl)-4,5,6,7-tetrahydro-1H-indazole-6-carboxamide], inhibition was half-maximal at 0.0598 µM (IC50).

Staying with this experiment, now noted: unit given as nm; hDGAT2 Sf-9 membrane prep; 13C18-triolein product by LC/MS/MS.
As to `CC1(NC(=O)C2CCc3c(-c4ccccc4Cl)nn(-c4ccc(F)cc4)c3C2)CCS(=O)(=O)C1` (stereo not shown) [Example 1, 3-(2-chlorophenyl)-1-(4-fluorophenyl)-N-(3-methyl-1,1-dioxidotetrahydrothiophen-3-yl)-4,5,6,7-tetrahydro-1H-indazole-6-carboxamide], inhibition was half-maximal at 0.0379 µM (IC50).

Usually IC50 stands for the concentration at which inhibition is half-maximal. Read a high IC50 as weaker potency in that assay.

Source of the values: patent US20240140938A1, “PREPARATION OF TETRAHYDROINDAZOLE DERIVATIVES AS NOVEL DIACYLGLYCERIDE O-ACYLTRANSFERASE 2 INHIBITORS” (MERCK SHARP & DOHME LLC, priority 2020, published 2024).
